According to the supplement of paper PMC8967900:

Legend:
Experiment in all cases: selective drug sensitivity score (sDSS, relative to normal bone marrow) (sDSS (score)); higher = more potent and effective on the cell line relative to normal bone marrow cells
Conditions in all cases: 72 h
MHH-CALL-3 = tested on: MHH-CALL-3
MN-60 = tested on: MN-60
KARPAS-45 = tested on: KARPAS-45
RCH-ACV = tested on: RCH-ACV
SEM cells = tested on: SEM cells
KASUMI-10 = tested on: KASUMI-10
MHH-CALL-4 = tested on: MHH-CALL-4
TANOUE = tested on: TANOUE
HPB-ALL = tested on: HPB-ALL
TMD5 = tested on: TMD5
COG-LL-394h = tested on: COG-LL-394h
COG-LL-402h = tested on: COG-LL-402h
380 = tested on: 380
KOPN-8 = tested on: KOPN-8
MOLT-14 = tested on: MOLT-14
NALM-16 = tested on: NALM-16
P30-OHKUBO = tested on: P30-OHKUBO
REH = tested on: REH
MHH-CALL-2 = tested on: MHH-CALL-2
NALL-1 = tested on: NALL-1
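Also: ALL cell lines in 384-well plates, five doses spanning 10,000-fold, each plate scaled between vehicle and 100 µmol/L benzalkonium chloride controls, sDSS an adapted area-under-curve metric.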

SMILES | selective drug sensitivity score (MHH-CALL-3) | selective drug sensitivity score (MN-60) | selective drug sensitivity score (KARPAS-45) | selective drug sensitivity score (RCH-ACV) | selective drug sensitivity score (SEM cells) | selective drug sensitivity score (KASUMI-10) | selective drug sensitivity score (MHH-CALL-4) | selective drug sensitivity score (TANOUE) | selective drug sensitivity score (HPB-ALL) | selective drug sensitivity score (TMD5) | selective drug sensitivity score (COG-LL-394h) | selective drug sensitivity score (COG-LL-402h) | selective drug sensitivity score 380 | selective drug sensitivity score (KOPN-8) | selective drug sensitivity score (MOLT-14) | selective drug sensitivity score (NALM-16) | selective drug sensitivity score (P30-OHKUBO) | selective drug sensitivity score (REH) | selective drug sensitivity score (MHH-CALL-2) | selective drug sensitivity score (NALL-1)
COc1cc2c(NC3CCN(C(C)C)CC3)nc(N3CCC(F)(F)CC3)nc2cc1OCCCN1CCCC1 [UNC0642] (top concentration 10000 nM) | -1.64 | -3.74 | 3.56 | 2.56 | -0.14 | -1.64 | 1.46 | -3.74 | -2.84 | -0.84 | 2.76 | 2.66 | 0.86 | -0.74 | -1.24 | -3.74 | 2.06 | -0.14 | 0.96 | -0.74
CO[C@@H](C(=O)N1Cc2[nH]nc(NC(=O)c3ccc(N4CCN(C)CC4)cc3)c2C1)c1ccccc1 [Danusertib] (top concentration 10000 nM) | 13.8 | -0.36 | 8.94 | 17.9 | 19.2 | 13.8 | 7.14 | -9.16 | 5.54 | 14.5 | 2.64 | 11.5 | 22.4 | 19 | 15.5 | -0.96 | 20 | 16.5 | 11.7 | 13.5
CC/C(=C(\c1ccc(O)cc1)c1ccc(OCCN(C)C)cc1)c1ccccc1 [4-hydroxytamoxifen] (top concentration 10000 nM) | -2.58 | -2.08 | 1.52 | 0.72 | 1.62 | -1.78 | 0.42 | -2.88 | 0.52 | -1.78 | 2.12 | -3.48 | -1.48 | 3.22 | 0.32 | -2.88 | 4.12 | 4.02 | 2.12 | -1.78
O=C(Nc1ccc(OC(F)(F)Cl)cc1)c1cnc(N2CC[C@@H](O)C2)c(-c2cc[nH]n2)c1 [Asciminib] (top concentration 1000 nM) | -0.98 | -1.98 | -1.98 | -1.98 | 5.72 | -1.98 | 7.12 | 1.12 | 1.62 | 13.6 | 4.52 | -1.98 | 1.92 | 11.4 | -0.28 | -1.98 | -0.58 | -1.98 | -1.98 | 3.62
CC[C@H](NC(=O)[C@H](C)NC)C(=O)N1C[C@@H](O)C[C@H]1Cc1c(-c2[nH]c3cc(F)ccc3c2C[C@@H]2C[C@H](O)CN2C(=O)[C@H](CC)NC(=O)[C@H](C)NC)[nH]c2cc(F)ccc12 [Birinapant] (top concentration 1000 nM) | -5.1 | 1.4 | -5.1 | 3.1 | -5.1 | -4.9 | 7.5 | -5.1 | -5.1 | -0.1 | 16.2 | -5.1 | -5.1 | -5.1 | -5.1 | 0.5 | -0.1 | 1.1 | 8.7 | 6.9
COc1cc2nccc(Oc3ccc(NC(=O)Nc4cc(C)on4)c(Cl)c3)c2cc1OC [Tivozanib] (top concentration 10000 nM) | -3.64 | 0.66 | 3.86 | 10.9 | 4.76 | 2.96 | -2.44 | -3.64 | -0.44 | 5.66 | 1.46 | 3.96 | -3.64 | 9.06 | 4.46 | -3.44 | 4.56 | 0.36 | -0.34 | -1.74
N#Cc1ccc(C(c2ccc(C#N)cc2)n2cncn2)cc1 [Letrozole] (top concentration 10000 nM) | -0.04 | -0.04 | -0.04 | -0.04 | -0.04 | -0.04 | -0.04 | 1.16 | -0.04 | -0.04 | -0.04 | -0.04 | -0.04 | -0.04 | -0.04 | -0.04 | -0.04 | 4.76 | -0.04 | -0.04
CN1CCN(c2ccc3nc(-c4c(N)c5c(F)cccc5[nH]c4=O)[nH]c3c2)CC1 [Dovitinib] (top concentration 10000 nM) | -0.14 | -0.14 | 0.26 | 0.46 | 10.1 | 6.46 | -0.14 | -0.14 | -0.14 | -0.14 | 1.36 | 2.96 | -0.14 | -0.14 | 0.46 | 0.96 | 0.36 | -0.14 | -0.14 | -0.14
CC[C@]1(O)C[C@H]2CN(CCc3c([nH]c4ccccc34)[C@@](C(=O)OC)(c3cc4c(cc3OC)N(C)[C@H]3[C@@](O)(C(=O)OC)[C@H](OC(C)=O)[C@]5(CC)C=CCN6CC[C@]43[C@@H]65)C2)C1 [Vinblastine] (top concentration 1000 nM) | -0.1 | -2.4 | -4.2 | 14.4 | 10.8 | -1 | -5.6 | -9 | 19.7 | -4.9 | -0.1 | 4.6 | 7 | 12.8 | -2.5 | 5.4 | 9.8 | 7.1 | -3.2 | -3.8
